Results taken from the supplement of paper PMC12463676, “Small-molecule dissolution of stress granules by redox modulation benefits ALS models” (Nature Chemical Biology, 2025).

Experiments:
lipoamide = compound: NC(=O)CCCCC1CCSS1 [lipoamide]; test: thermal stability z-score vs DMSO; higher = more thermally stabilized by treatment; settings: HeLa, lipoamide concentration 100 µM
Protocol: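 Cellular thermal proteome profiling in HeLa cells. Cells were treated with 100 µM lipoamide for 1 h, with or without 1 mM arsenate for a further 1 h, then heated to ten temperatures (37-66.3 °C), and soluble protein was quantified by TMT mass spectrometry relative to 0.1% DMSO controls. The thermal stability score (sum of log2 fold changes minus the abundance score) was transformed to a z-score; mean of n = 3 experiments.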

potassium arsenate = compound: O=[As]([O-])(O)O.[K+] [potassium arsenate]; test: as above; settings: HeLa; arsenate concentration 1 mM
Protocol: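 Cellular thermal proteome profiling in HeLa cells treated with 1 mM arsenate for 1 h (DMSO pretreatment), heated to ten temperatures (37-66.3 °C). Soluble protein was quantified by TMT mass spectrometry relative to DMSO controls; the thermal stability score was transformed to a z-score; mean of n = 3 experiments.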

[1] = arsenate co-treatment: 1 mM arsenate 1 h
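Note: each temperature applied for 3 min, abundance score taken as mean log2 fold change at the two lowest temperatures, z-score obtained by mean subtraction and division by SD.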

Chain of UniProt Q96F81 (Q96F81 whole entry): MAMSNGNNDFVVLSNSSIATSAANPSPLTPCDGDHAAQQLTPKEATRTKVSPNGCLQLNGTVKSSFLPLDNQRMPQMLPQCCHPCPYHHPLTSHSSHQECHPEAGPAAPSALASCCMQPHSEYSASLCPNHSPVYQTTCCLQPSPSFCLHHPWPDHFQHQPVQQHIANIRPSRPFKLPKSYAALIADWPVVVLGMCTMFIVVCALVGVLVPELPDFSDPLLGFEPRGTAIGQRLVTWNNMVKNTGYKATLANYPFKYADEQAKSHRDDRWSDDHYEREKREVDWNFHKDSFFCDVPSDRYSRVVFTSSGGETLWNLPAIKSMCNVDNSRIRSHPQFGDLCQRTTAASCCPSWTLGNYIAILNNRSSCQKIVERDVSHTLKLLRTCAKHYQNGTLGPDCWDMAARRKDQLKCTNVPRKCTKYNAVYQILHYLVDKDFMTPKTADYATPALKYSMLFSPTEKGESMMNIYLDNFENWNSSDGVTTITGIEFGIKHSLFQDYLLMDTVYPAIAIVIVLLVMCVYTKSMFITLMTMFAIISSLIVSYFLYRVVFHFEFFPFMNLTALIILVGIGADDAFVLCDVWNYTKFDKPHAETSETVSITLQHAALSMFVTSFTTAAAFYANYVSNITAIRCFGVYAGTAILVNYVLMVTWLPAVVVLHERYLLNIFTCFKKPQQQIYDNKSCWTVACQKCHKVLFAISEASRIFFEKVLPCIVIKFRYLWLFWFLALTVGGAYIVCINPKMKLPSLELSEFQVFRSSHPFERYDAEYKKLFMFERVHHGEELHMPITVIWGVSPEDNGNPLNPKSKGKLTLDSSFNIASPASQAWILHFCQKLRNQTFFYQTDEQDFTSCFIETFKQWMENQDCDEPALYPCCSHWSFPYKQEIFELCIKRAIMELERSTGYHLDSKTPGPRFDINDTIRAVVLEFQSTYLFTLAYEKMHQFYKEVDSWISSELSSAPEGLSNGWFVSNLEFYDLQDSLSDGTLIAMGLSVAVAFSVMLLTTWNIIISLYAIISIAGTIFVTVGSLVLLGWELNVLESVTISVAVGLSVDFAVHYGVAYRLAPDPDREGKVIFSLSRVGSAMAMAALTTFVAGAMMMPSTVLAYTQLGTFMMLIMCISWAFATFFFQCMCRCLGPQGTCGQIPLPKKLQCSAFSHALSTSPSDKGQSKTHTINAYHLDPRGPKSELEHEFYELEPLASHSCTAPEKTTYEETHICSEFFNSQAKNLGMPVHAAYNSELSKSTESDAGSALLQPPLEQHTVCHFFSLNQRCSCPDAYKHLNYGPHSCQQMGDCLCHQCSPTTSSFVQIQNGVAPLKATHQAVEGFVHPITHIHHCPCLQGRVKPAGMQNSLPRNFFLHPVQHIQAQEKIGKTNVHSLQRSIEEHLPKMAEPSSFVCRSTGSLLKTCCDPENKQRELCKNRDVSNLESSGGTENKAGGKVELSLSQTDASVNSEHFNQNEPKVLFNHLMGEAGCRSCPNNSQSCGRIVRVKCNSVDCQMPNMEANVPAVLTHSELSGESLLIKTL
Chain of UniProt Q86Y56 (Q86Y56 whole entry): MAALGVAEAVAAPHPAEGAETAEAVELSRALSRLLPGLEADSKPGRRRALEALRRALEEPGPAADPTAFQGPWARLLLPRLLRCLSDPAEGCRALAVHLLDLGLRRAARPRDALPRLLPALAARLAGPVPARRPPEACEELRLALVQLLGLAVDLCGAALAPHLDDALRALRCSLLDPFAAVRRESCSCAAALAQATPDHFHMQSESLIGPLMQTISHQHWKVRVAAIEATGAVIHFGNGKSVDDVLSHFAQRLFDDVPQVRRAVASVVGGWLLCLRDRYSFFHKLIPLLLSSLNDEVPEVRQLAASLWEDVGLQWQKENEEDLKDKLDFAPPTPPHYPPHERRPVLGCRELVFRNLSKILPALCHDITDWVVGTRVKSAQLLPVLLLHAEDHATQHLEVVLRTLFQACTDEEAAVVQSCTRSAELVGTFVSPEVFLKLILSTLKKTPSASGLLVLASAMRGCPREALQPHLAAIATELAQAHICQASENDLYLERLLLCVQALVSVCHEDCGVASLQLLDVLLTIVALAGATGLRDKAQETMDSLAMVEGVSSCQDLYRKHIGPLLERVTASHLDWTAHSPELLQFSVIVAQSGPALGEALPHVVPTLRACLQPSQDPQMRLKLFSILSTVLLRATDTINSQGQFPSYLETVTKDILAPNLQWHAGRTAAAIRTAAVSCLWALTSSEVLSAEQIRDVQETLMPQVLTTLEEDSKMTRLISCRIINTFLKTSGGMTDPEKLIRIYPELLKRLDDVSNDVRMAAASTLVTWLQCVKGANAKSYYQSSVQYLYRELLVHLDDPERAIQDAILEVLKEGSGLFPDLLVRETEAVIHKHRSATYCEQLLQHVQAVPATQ
Chain of UniProt Q9NR28 (Q9NR28 whole entry): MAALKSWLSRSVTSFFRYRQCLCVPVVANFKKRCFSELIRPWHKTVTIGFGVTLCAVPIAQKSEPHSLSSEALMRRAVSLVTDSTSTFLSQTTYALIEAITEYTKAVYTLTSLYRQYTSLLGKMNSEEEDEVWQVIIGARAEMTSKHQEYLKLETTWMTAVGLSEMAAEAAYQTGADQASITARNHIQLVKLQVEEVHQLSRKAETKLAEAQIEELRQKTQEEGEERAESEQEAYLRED
Chain of UniProt Q92796 (Q92796 whole entry): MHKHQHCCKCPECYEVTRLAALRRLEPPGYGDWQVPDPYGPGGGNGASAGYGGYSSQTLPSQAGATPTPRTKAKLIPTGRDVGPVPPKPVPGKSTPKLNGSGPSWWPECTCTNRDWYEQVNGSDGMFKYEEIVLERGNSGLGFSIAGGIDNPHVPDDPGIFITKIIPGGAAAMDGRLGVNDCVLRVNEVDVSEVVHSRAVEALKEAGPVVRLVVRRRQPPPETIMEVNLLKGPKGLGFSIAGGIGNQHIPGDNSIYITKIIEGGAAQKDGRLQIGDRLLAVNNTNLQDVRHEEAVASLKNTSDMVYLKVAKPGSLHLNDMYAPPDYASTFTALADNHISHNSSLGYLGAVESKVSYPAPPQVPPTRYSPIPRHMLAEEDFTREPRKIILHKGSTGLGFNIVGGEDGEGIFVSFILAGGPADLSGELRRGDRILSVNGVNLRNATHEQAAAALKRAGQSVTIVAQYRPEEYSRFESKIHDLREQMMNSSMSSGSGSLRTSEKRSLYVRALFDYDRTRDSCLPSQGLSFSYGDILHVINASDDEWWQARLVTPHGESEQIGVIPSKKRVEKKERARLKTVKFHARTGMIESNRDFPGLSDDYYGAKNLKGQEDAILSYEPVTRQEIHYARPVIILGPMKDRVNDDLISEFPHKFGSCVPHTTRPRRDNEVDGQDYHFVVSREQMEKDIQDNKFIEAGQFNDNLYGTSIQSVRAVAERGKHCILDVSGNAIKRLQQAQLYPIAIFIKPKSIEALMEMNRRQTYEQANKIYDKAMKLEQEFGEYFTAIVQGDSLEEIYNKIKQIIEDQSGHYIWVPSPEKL
Chain of UniProt P10515 (P10515 whole entry): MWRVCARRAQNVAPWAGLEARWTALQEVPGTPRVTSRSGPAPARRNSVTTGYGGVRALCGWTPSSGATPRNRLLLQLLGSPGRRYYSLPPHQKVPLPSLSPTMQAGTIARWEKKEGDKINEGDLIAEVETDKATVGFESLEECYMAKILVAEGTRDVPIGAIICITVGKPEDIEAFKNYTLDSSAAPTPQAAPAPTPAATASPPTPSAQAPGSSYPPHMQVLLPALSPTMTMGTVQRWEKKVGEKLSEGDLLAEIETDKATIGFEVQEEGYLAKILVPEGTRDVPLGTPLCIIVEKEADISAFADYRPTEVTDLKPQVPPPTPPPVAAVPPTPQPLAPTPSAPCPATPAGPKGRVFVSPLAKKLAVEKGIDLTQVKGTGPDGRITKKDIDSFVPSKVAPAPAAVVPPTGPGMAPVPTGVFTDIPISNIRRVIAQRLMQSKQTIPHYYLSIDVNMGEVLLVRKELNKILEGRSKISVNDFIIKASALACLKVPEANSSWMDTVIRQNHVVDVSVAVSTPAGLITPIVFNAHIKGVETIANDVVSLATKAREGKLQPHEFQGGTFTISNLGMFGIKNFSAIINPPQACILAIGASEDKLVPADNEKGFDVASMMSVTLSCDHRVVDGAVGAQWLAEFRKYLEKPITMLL
Chain of UniProt Q6UX07 (Q6UX07 whole entry): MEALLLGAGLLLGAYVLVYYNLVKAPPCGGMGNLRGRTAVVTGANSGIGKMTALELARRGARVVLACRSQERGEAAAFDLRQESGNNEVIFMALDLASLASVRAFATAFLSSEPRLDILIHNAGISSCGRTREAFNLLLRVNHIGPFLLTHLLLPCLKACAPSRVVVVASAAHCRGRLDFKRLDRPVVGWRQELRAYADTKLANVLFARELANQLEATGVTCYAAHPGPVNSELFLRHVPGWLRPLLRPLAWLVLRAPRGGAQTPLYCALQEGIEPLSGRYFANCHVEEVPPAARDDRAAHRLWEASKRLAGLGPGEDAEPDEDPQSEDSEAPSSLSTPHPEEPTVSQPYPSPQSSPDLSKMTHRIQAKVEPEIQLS
Chain of UniProt Q6IAN0 (Q6IAN0 whole entry): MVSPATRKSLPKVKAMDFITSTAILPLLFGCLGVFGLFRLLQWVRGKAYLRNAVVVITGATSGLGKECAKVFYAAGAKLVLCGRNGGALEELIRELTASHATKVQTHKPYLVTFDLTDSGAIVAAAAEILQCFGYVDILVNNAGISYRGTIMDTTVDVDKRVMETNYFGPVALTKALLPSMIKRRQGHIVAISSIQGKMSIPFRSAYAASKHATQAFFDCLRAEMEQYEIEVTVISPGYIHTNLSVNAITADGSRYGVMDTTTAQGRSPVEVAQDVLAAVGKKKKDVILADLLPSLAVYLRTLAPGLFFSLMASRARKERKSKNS
Chain of UniProt Q6UWP2 (Q6UWP2 whole entry): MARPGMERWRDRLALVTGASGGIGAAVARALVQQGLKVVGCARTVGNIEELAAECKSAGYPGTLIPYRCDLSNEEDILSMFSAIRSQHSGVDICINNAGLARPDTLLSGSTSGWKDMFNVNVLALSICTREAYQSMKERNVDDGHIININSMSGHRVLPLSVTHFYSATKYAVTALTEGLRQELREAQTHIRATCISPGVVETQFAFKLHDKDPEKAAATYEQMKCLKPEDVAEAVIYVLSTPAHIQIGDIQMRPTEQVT

Target	thermal stability z-score (lipoamide; [1])	thermal stability z-score (lipoamide; arsenate co-treatment: none)	thermal stability z-score (potassium arsenate)
DHPS (UniProt P49366)	0.538	0.536	0.603
DHRS1 (UniProt Q96LJ7)	-0.121	0.743	0.812
DHRS3 (UniProt O75911)	-0.614	-0.616	-0.762
DHRS4 (UniProt Q9BTZ2)	-0.194	-0.173	0.0753
DHRS7 (UniProt Q9Y394)	-0.365	-0.498	0.437
DHRS7B (UniProt Q6IAN0)	0.315	-0.159	0.0755
DHRS11 (UniProt Q6UWP2)	0.484	0.188	0.252
DHRS13 (UniProt Q6UX07)	0.049	0.274	0.0183
DHRSX (UniProt Q8N5I4)	0.396	0.418	-0.643
DHTKD1 (UniProt Q96HY7)	-0.237	0.0606	-0.558
DHX8 (UniProt Q14562)	0.819	0.167	0.449
DHX9 (UniProt Q08211)	0.398	1.65	-1.4
DHX15 (UniProt O43143)	-0.319	-0.389	0.00808
DHX16 (UniProt O60231)	-0.223	0.345	-1.81
DHX29 (UniProt Q7Z478)	0.104	0.27	0.267
DHX30 (UniProt Q7L2E3)	-0.306	0.192	-0.391
DHX32 (UniProt Q7L7V1)	-1.73	-1.67	0.629
DHX34 (UniProt Q14147)	0.0163	-0.0341	-0.164
DHX36 (UniProt Q9H2U1)	-0.0301	-0.0965	-0.0639
DHX37 (UniProt Q8IY37)	0.321	0.303	0.359
DHX38 (UniProt Q92620)	-0.164	0.0335	-0.406
DHX40 (UniProt Q8IX18)	0.111	0.0273	-0.0831
DHX57 (UniProt Q6P158)	-0.125	-0.0979	-0.286
DIABLO (UniProt Q9NR28)	0.979	0.495	0.154
DIAPH1 (UniProt O60610)	0.466	0.801	-0.58
DIAPH3 (UniProt Q9NSV4)	-1.4	-0.761	-0.0767
DICER1 (UniProt Q9UPY3)	0.656	0.00487	-0.398
DIDO1 (UniProt Q9BTC0)	0.835	0.516	-1.37

Target	thermal stability z-score (lipoamide; [1])	thermal stability z-score (lipoamide; arsenate co-treatment: none)	thermal stability z-score (potassium arsenate)
DIEXF (UniProt Q68CQ4)	0.1	0.0895	0.134
DIMT1 (UniProt Q9UNQ2)	0.142	0.0753	-0.418
DIP2A (UniProt Q14689)	0.82	-0.0406	-0.205
DIP2B (UniProt Q9P265)	0.206	0.147	-0.222
DIS3 (UniProt Q9Y2L1)	-0.727	-0.422	-1.52
DIS3L2 (UniProt Q8IYB7)	-0.225	0.566	0.155
DIS3L (UniProt Q8TF46)	0.0339	0.0425	0.0192
DISP1 (UniProt Q96F81)	0.342	0.512	-1.07
DKC1 (UniProt O60832)	0.735	0.39	0.437
DLAT (UniProt P10515)	-2.72	-0.583	-11.2
DLD (UniProt P09622)	0.662	1.04	-0.681
DLG1 (UniProt Q12959)	0.111	-0.207	-0.34
DLG3 (UniProt Q92796)	-0.116	0.02	-0.395
DLG5 (UniProt Q8TDM6)	0.227	-0.0304	0.0056
DLGAP4 (UniProt Q9Y2H0)	-0.0201	-0.367	-2.62
DLGAP5 (UniProt Q15398)	-0.352	-0.378	-0.0873
DLST (UniProt P36957)	0.396	0.38	-5.05
DMAP1 (UniProt Q9NPF5)	-0.551	-0.38	-0.644
DMD (UniProt P11532)	0.0264	-0.124	-0.176
DMWD (UniProt Q09019)	0.459	-0.167	0.407
DMXL1 (UniProt Q9Y485)	0.485	0.00841	-0.0177
DMXL2 (UniProt Q8TDJ6)	-0.191	-0.105	0.00642
DNA2 (UniProt P51530)	-0.0519	-0.0211	-0.131
DNAAF2 (UniProt Q9NVR5)	-0.15	-0.168	-0.268
DNAAF5 (UniProt Q86Y56)	-0.979	0.336	0.875
DNAH1 (UniProt Q9P2D7)	-0.00768	0.171	0.0212
DNAJA1 (UniProt P31689)	-1.05	-0.818	-0.452
